The results in this text go back to patent US20220080015A1, “METHOD OF PREVENTING AND TREATING NEURODEGENERATIVE DISORDERS USING SOPHORA JAPONICA L. EXTRACT AS ACTIVE INGREDIENT” (UNIVERSITY-INDUSTRY COOPERATION GROUP OF KYUNG HEE …, priority 2016, published 2022).

In the assay the test system is Alzheimer's disease-induced mouse model (amyloid beta1-42 peptide-infused mouse model). The experiment in a line: Morris water maze test (memory test). The class given is in vivo, C57BL/6 mouse. As to conditions: Aβ-infused mice + donepezil 1 mg/kg (positive control); platform removed, 60 seconds free swimming; average ± S.E.M. How it is done:
Specifically, the following experiment was carried out by applying a conventional Morris method. First, a mouse was transferred to a behavior observation chamber and stabilized one hour before the initiation of the experiment. The maze dimension includes a diameter of 90 cm and a height of 32.5 cm, and the diameter of a white platform is 5 cm. In the periphery of the underwater maze, spatial cues such as a computer system connected with a video camera and a device for controlling a water temperature were always regularly maintained. Afterward, the maze was filled with water so that the platform is installed 1 cm below the water level, such that a mouse cannot see the platform. The maze was divided into quadrants using four markers, the quadrants were classified as northeast (NE), northwest (NW), southeast (SE), and southwest (SW), and the platform was installed in one quadrant of the maze. […] On the sixth day, the platform was removed from the maze, and then the residence time of a mouse in the quadrant in which the platform was placed was measured. On the final day […] of the Morris water maze test, to perform a memory test, the platform was removed, free swimming was allowed for 60 seconds, and the residence time of a mouse in the quadrant in which the platform was placed was measured in percentage using a Smart program.

Regarding `COc1cc2c(cc1OC)C(=O)C(CC1CCN(Cc3ccccc3)CC1)C2` (stereo not shown) [donepezil], the “Residence time in quadrant (%)” value worked out at 59.222±2.918%.
